Results as given in doi:10.1101/2022.09.19.508609v1 (biorxiv, 2022).

How the values were obtained:
[1] = molecular target: T1, AgamOr29 + AgamOrco (Anopheles gambiae, UniProt A0A1S4H074); test: two-electrode voltage clamp, Xenopus oocytes; assay type: cell-based
T1 sequence (A0A1S4H074 1-384): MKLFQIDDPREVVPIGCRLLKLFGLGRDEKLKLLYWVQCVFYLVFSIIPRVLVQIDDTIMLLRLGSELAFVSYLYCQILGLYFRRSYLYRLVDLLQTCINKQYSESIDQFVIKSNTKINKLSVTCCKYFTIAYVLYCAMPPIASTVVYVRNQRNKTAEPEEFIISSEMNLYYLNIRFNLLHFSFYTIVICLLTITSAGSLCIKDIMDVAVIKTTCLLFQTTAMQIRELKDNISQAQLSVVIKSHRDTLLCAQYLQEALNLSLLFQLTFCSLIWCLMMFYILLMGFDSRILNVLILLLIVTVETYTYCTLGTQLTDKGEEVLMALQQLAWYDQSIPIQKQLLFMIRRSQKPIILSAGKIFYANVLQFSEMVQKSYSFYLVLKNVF
T1 sequence (Q7QCC7 1-478 partner): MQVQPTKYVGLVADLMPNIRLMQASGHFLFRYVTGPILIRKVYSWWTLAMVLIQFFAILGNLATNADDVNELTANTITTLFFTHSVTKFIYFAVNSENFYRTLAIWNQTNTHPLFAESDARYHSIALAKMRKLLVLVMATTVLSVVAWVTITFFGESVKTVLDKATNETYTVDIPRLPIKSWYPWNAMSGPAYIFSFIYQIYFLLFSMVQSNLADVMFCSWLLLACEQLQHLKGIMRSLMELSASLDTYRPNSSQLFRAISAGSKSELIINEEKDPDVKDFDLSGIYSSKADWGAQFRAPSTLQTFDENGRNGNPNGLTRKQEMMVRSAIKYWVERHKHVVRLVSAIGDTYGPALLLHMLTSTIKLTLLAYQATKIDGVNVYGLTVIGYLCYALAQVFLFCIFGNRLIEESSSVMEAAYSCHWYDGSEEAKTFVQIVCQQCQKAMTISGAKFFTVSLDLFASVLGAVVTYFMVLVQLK

[2] = molecular target: T2, AgamOr53 + AgamOrco (Anopheles gambiae, UniProt A0ABK8FS74); test: two-electrode voltage clamp, Xenopus oocytes; assay type: cell-based
T2 sequence (A0ABK8FS74 1-384): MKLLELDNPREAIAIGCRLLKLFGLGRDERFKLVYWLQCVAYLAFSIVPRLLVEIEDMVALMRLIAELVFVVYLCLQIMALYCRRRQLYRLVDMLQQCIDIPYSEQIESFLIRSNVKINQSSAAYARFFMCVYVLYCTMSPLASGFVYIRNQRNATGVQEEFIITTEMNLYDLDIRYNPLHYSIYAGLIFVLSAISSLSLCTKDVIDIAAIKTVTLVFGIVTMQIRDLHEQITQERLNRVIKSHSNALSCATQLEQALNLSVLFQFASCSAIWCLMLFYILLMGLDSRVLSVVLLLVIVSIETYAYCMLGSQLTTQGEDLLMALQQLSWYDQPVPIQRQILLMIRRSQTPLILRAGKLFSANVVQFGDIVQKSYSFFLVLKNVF
T2 sequence (Q7QCC7 1-478 partner): T1 sequence (Q7QCC7 1-478 partner)

Row | EC50 [1] [µM] | EC50 [2] [µM] | SMILES
1 | 14.7 | 14.9 | C=C[C@](C)(O)CCC=C(C)C [(R)-(–)-linalool]
2 | 7.1 | 19.1 | C=C[C@@](C)(O)CCC=C(C)C [(S)-(+)-linalool]
